Experimental findings from patent US9315475B2 (MERCK SHARP & DOHME CORP., priority 2011, dated 2016) are described below.

One assay deals with T1, wildtype HIV-1 protease (Human immunodeficiency virus type 1 group M subtype B, UniProt P04585).
T1 construct: the wildtype HIV-1 protease (which was expressed in Escherichia coli); made in house; host or cells: Escherichia coli
The experiment in a line: Assay for inhibition of microbial expressed HIV protease (Pepcleav). The conditions noted are these: wild type HIV-1 protease expressed in E. coli, peptide substrate, pH 5.5; mean of at least two independent experiments; read-out: Pepcleav. It is filed as biochemical. Summed up:
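Cleavage of 400 μM peptide substrate Val-Ser-Gln-Asn-(βnaphthyl)Ala-Pro-Ile-Val by 20 pM wild-type enzyme (E. coli-expressed) ran 1 h at 30 °C after 30 min inhibitor preincubation, pH 5.5 acetate buffer. Inhibition derived from product peak area by C18 LC with multiple-reaction-monitoring MS after formic acid quench.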

Another assay has as its system HIV-1 (H9IIIB strain). The experiment in a line: Antiviral acute infection assay in cell culture (Spread). The format is cell-based. To be noted: Human immunodeficiency virus 1, T-lymphoid, HIV-1 H9IIIB infection of MT-4 human T-lymphoid cells in 10% FBS; mean of at least two independent experiments. From the text: Antiviral Assays in Cell Culture (“Spread”)
Acute Infection Assay (“Spread”) data were generated using HIV-1 (H9IIIB strain) infection of MT-4 human T-lymphoid cells in 10% FBS, and according to the methods disclosed by J. P. Vacca et al, “L-735,524: An orally bioavailable human immunodeficiency virus type 1 protease inhibitor,” Proc. Natl. Acad. Sci. USA, Vol. 91, pp. 4096-4100 (April 1994).

pEC50, pIC50: −log10 of the molar value.

For the compound `CCOCCNC(=O)OC[C@@H]1CO[C@H](CCc2c(F)cncc2NC(=O)[C@@H](N)C(c2ccc(F)cc2)c2ccc(F)cc2)CN1` [Example 248, N-(4-{2-[(2R,5S)-5-({[(2-ethoxyethyl)carbamoyl]oxy}methyl)morpholin-2-yl]ethyl}-5-fluoropyridin-3-yl)-4-fluoro-β-(4-fluorophenyl)-L-phenylalaninamide], on wildtype HIV-1 protease, the pIC50 was 8.01. The pEC50 in the assay on HIV-1 (H9IIIB strain) is 7.26.
The like results for `N[C@H](C(=O)Nc1cc(F)cc(F)c1CC[C@@H]1CN[C@H](COC(=O)NCC(F)(F)F)CO1)C(c1ccc(F)cc1)c1ccc(F)cc1` [Example 247, N-(3,5-difluoro-2-{2-[(2R,5S)-5-({[(2,2,2-trifluoroethyl)carbamoyl]oxy}methyl)morpholin-2-yl]ethyl}phenyl)-4-fluoro-β-(4-fluorophenyl)-L-phenylalaninamide] were, in that order, 7.92 and 6.59.
For `N[C@H](C(=O)Nc1cccc(F)c1CC[C@@H]1CN[C@H](COC(=O)NCC(F)(F)F)CO1)[C@H](c1ccccc1)c1ccc(OC(F)(F)F)cc1` [Example 236, (βR)-N-(3-fluoro-2-{2-[(2R,5S)-5-({[(2,2,2-trifluoroethyl)carbamoyl]oxy}methyl)morpholin-2-yl]ethyl}phenyl)-β-phenyl-O-(trifluoromethyl)-L-tyrosinamide], the pIC50 at wildtype HIV-1 protease is 7.16. Further, the negative-log EC50 (pEC50) in the assay with HIV-1 (H9IIIB strain) is 6.24.
In the case of `CC(C)OC(=O)N[C@H](C(=O)Nc1cncc(F)c1CC[C@@H]1CN[C@H](COC(=O)NCC(F)(F)F)CO1)C(c1ccc(F)cc1)c1ccc(F)cc1` [Example 277, 4-fluoro-β-(4-fluorophenyl)-N-(5-fluoro-4-{2-[(2R,5S)-5-({[(2,2,2-trifluoroethyl)carbamoyl]oxy}methyl)morpholin-2-yl]ethyl}pyridin-3-yl)-Nα-[(1-methylethoxy)carbonyl]-L-phenylalaninamide], the pIC50 on wildtype HIV-1 protease is 8.49. The negative logarithm of the EC50 (pEC50) in the assay with HIV-1 (H9IIIB strain) was 7.64.
In the same order, the values of `N[C@H](C(=O)Nc1cncc(F)c1CC[C@@H]1CN[C@H](COC(=O)NCC(F)(F)F)CO1)[C@H](c1ccc(F)cc1)c1ccc(Cl)c(F)c1` [Example 221, (βR)-β-(4-chloro-3-fluorophenyl)-4-fluoro-N-(5-fluoro-4-{2-[(2R,5S)-5-({[(2,2,2-trifluoro-ethyl)carbamoyl]oxy}methyl)morpholin-2-yl]ethyl}pyridin-3-yl)-L-phenylalaninamide] are 8.96 and 7.66.
In the case of `CCC[C@H](c1ccccc1)[C@H](NC(=O)OC)C(=O)Nc1cccc(F)c1CC[C@@H]1CN[C@H](COC(=O)NCC(F)(F)F)CO1` [Example 293, (βR)-N-(3-fluoro-2-{2-[(2R,5S)-5-({[(2,2,2-trifluoroethyl)carbamoyl]oxy}methyl)morpholin-2-yl]ethyl}phenyl)-Nα-(methoxycarbonyl)-β-propyl-L-phenylalaninamide], on wildtype HIV-1 protease, the pIC50 was 7.00. The pEC50 with HIV-1 (H9IIIB strain) is 7.10.
As to `N[C@H](C(=O)Nc1cncc(F)c1CC[C@@H]1CNC(COC(=O)NCC(F)(F)F)CO1)[C@@H](c1ccc(F)cc1)c1cccc(Cl)c1` (stereo in doubt) [Example 93, (2S,3S)-2-Amino-3-(3-chlorophenyl)-3-(4-fluorophenyl)-N-(5-fluoro-4-(2-((2R,5R)-5-(2,2,2-trifluoroethylaminocarbonyloxymethyl)morpholine-2-yl)ethyl)pyridin-3-yl)propanamide], the pIC50 at wildtype HIV-1 protease was 8.77. In addition, in the assay on HIV-1 (H9IIIB strain), the pEC50 is 7.28.
The like results for `NC(=O)OC[C@@H]1CO[C@H](CCc2c(F)cccc2NC(=O)C[C@@H](c2ccc(F)cc2)c2ccncc2F)CN1` [Example 157, {(3S,6R)-6-[2-(2-fluoro-6-{[(3S)-3-(4-fluorophenyl)-3-(3-fluoropyridin-4-yl)propanoyl]amino}phenyl)ethyl]morpholin-3-yl}methyl carbamate] were, in that order, 8.02 and 7.74.
As to `N[C@H](C(=O)Nc1cncc(F)c1CC[C@@H]1CNC(COC(=O)NCC(F)(F)F)CO1)[C@@H](c1ccc(F)cc1)c1cc(F)cc(F)c1` (stereo in doubt) [Example 90, (2S,3S)-2-Amino-3-(4-fluorophenyl)-3-(3,5-difluorophenyl)-N-(5-fluoro-4-(2-((2R,5R)-5-(2,2,2-trifluoroethylaminocarbonyloxymethyl)morpholine-2-yl)ethyl)pyridin-3-yl)propanamide], at wildtype HIV-1 protease, the pIC50 was 8.62. The pEC50 with HIV-1 (H9IIIB strain) is 7.31.
Take `N[C@H](C(=O)Nc1cncc(F)c1CC[C@@H]1CN[C@H](CO)CO1)[C@@H](c1ccccc1)c1ccnc2ccccc12` [Example 249, (βS)-N-(5-fluoro-4-{2-[(2R,5R)-5-(hydroxymethyl)morpholin-2-yl]ethyl}pyridin-3-yl)-β-quinolin-4-yl-L-phenylalaninamide]: at wildtype HIV-1 protease, the pIC50 is 8.03. Moreover, the pEC50 in the assay with HIV-1 (H9IIIB strain) was 5.52.
Consider `N[C@H](C(=O)Nc1cncc(F)c1CC[C@@H]1CN[C@H](COC(=O)NCC(F)(F)F)CO1)[C@@H](c1ccc(F)cc1)c1cccc(C(F)(F)F)c1` [Example 272, (βS)-4-fluoro-N-(5-fluoro-4-{2-[(2R,5S)-5-({[(2,2,2-trifluoroethyl)carbamoyl]oxy}methyl)morpholin-2-yl]ethyl}pyridin-3-yl)-β-[3-(trifluoromethyl)phenyl]-L-phenylalaninamide], for which the pIC50 at wildtype HIV-1 protease is 8.70. The pEC50 in the assay on HIV-1 (H9IIIB strain) is 7.49.
Turning to `COC(=O)N[C@H](C(=O)Nc1cccc(F)c1CC[C@@H]1CN[C@H](COC(=O)NCC(C)(C)O)CO1)C(c1ccc(F)cc1)c1ccc(F)cc1` [Example 121, 4-Fluoro-N-(3-fluoro-2-{2-[(2R,5S)-5-({[(2-hydroxy-2-methylpropyl)carbamoyl]oxy}methyl)morpholin-2-yl]ethyl}phenyl)-β-(4-fluorophenyl)-Nα-(methoxycarbonyl)-L-phenylalaninamide], the pIC50 on wildtype HIV-1 protease is 8.60. Further, the negative logarithm of the EC50 (pEC50) in the assay on HIV-1 (H9IIIB strain) is 8.00.
With `O=C(C[C@H](c1ccc(F)cc1)c1cncc(F)c1)Nc1cccc(F)c1CC[C@@H]1CN[C@H](COC(=O)NCC(F)(F)F)CO1` [Example 161, {(3S,6R)-6-[2-(2-fluoro-6-{[(3R)-3-(4-fluorophenyl)-3-(5-fluoropyridin-3-yl)propanoyl]amino}phenyl)ethyl]morpholin-3-yl}methyl (2,2,2-trifluoroethyl)carbamate], the pIC50 on wildtype HIV-1 protease was 7.92. This compound also showed a pEC50 in the assay on HIV-1 (H9IIIB strain) of 7.15.
Take `COC(=O)N[C@H](C(=O)Nc1cncc(F)c1CC[C@@H]1CN[C@H](COC(=O)NCC(F)(F)F)CO1)[C@H](c1ccccc1)c1ccc(Cl)cc1` [Example 107, (βR)-β-(4-Chlorophenyl)-N-(5-fluoro-4-{2-[(2R,5S)-5-({[(2,2,2-trifluoroethyl)carbamoyl]oxy}methyl)morpholin-2-yl]ethyl}pyridin-3-yl)-Nα-(methoxycarbonyl)-L-phenylalaninamide]: the pIC50 at wildtype HIV-1 protease was 9.52. Moreover, the pEC50 in the assay with HIV-1 (H9IIIB strain) is 7.96.
In the same order, the values of `C[C@H](NC(=O)OC[C@@H]1CO[C@H](CCc2c(F)cccc2NC(=O)[C@@H](N)C(c2ccc(F)cc2)c2ccc(F)cc2)CN1)c1ccc(F)cc1` [Example 212, 4-fluoro-N-[3-fluoro-2-(2-{(2R,5S)-5-[({[(1S)-1-(4-fluorophenyl)ethyl]carbamoyl}oxy)methyl]morpholin-2-yl}ethyl)phenyl]-β-(4-fluorophenyl)-L-phenylalaninamide] are 7.96 and 6.09.
Regarding `NC(=O)OC[C@@H]1CO[C@H](COc2c(F)cc(F)cc2NC(=O)[C@@H](N)C(c2ccc(F)cc2)c2ccc(F)cc2)CN1` [Example 258, N-[2-({(2S,5S)-5-[(carbamoyloxy)methyl]morpholin-2-yl}methoxy)-3,5-difluorophenyl]-4-fluoro-β-(4-fluorophenyl)-L-phenylalaninamide], the pIC50 on wildtype HIV-1 protease is 8.30. In the assay on HIV-1 (H9IIIB strain), this compound gave a pEC50 of 6.59.
For `COC(=O)N[C@H](C(=O)Nc1cccc(F)c1CC[C@@H]1CN[C@H](COC(=O)NCC(F)(F)F)CO1)C(c1cccc(F)c1)c1cccc(F)c1` [Example 307, 3-fluoro-β-(3-fluorophenyl)-N-(3-fluoro-2-{2-[(2R,5S)-5-({[(2,2,2-trifluoroethyl)carbamoyl]oxy}methyl)morpholin-2-yl]ethyl}phenyl)-Nα-(methoxy-carbonyl)-L-phenylalaninamide], on wildtype HIV-1 protease, the pIC50 was 8.52. Moreover, the negative logarithm of the EC50 (pEC50) in the assay on HIV-1 (H9IIIB strain) is 7.85.
In the same order, the values of `COC(=O)N[C@H](C(=O)Nc1cccc(F)c1CC[C@@H]1CN[C@H](COC(=O)NCC(F)(F)F)CO1)[C@@H](c1ccc(F)cc1)c1cccc(OC(F)(F)F)c1` [Example 303, (βS)-4-fluoro-N-(3-fluoro-2-{2-[(2R, 5S)-5-({[(2,2,2-trifluoroethyl)carbamoyl]oxy}methyl)morpholin-2-yl]ethyl}phenyl)-Nα-(methoxy-carbonyl)-β-[3-(trifluoromethoxy)phenyl]-L-phenylalaninamide] are 8.28 and 7.62.
In the same order, the values of `N[C@H](C(=O)Nc1cncc(F)c1CC[C@@H]1CN[C@H](COC(=O)NC[C@H]2CCC(=O)N2)CO1)C(c1ccc(F)cc1)c1ccc(F)cc1` [Example 254, 4-fluoro-N-(5-fluoro-4-{2-[(2R,5S)-5-{[({[(2R)-5-oxopyrrolidin-2-yl]methyl}carbamoyl)oxy]methyl}morpholin-2-yl]ethyl}pyridin-3-yl)-β-(4-fluorophenyl)-L-phenylalaninamide] are 8.12 and 5.96.
